# Source: ChEMBL document CHEMBL1155037, “BACE1 inhibitory effects of lavandulyl flavanones from Sophora flavescens” (Bioorg Med Chem, 2008)
# Calls of active or inactive are those of the source. No cut-off for these calls is given here.
# Key:
# Beta-secretase 1 [1] = target: T1, Beta-secretase 1 (Homo sapiens, UniProt P56817); test: Inhibition of human BACE1
# Beta-secretase 1 [2] = target: T1, Beta-secretase 1; test: Inhibition of human BACE1 expressed in HEK293 cells assessed as reduction in soluble APPalpha level after 4 hrs by Western blot analysis; assay type: cell-based
# Beta-secretase 1 [3] = target: T1, Beta-secretase 1; test: Inhibition of human BACE1 expressed in HEK293 cells assessed as reduction in soluble APPbeta level after 4 hrs by Western blot analysis; assay type: cell-based; parameters: concentration or dose not given beside the values
# T1 sequence (P56817 whole entry): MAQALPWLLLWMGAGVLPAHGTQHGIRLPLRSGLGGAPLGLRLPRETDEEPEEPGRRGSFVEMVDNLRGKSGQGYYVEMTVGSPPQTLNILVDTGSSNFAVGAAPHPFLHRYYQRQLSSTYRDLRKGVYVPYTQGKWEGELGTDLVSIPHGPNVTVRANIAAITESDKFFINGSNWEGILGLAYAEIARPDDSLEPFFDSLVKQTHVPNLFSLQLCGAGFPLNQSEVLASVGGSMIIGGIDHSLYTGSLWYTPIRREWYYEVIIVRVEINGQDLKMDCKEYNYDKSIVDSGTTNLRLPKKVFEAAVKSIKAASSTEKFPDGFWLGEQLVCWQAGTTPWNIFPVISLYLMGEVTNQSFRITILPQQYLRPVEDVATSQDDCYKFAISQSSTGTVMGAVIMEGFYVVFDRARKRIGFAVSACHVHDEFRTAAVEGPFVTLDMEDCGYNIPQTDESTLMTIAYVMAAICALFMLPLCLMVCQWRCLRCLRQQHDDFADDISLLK
Structure (SMILES),IC50 (Beta-secretase 1 [1]) [µM],Ki (Beta-secretase 1 [1]) [µM],Activity (Beta-secretase 1 [2]),Activity (Beta-secretase 1 [3]) [%]
C=C(C)[C@H](CCC(C)(C)O)Cc1c(O)cc(OC)c2c1O[C@H](c1ccc(O)cc1O)CC2=O [KURARINOL],39.2,–,–,–
COc1cc(O)c(CC=C(C)C)c2c1C(=O)CC(c1ccc(O)cc1)O2 (stereo not drawn) [ISOXANTHOHUMOL],27.7,–,–,–
C=C(C)C(CC=C(C)C)Cc1c(O)cc(OC)c2c1O[C@H](c1ccc(O)cc1O)CC2=O (stereo partly drawn) [KURARINONE],3.3,7.2,Active,51.9
C=C(C)[C@H](CC=C(C)C)Cc1c(O)cc(O)c2c1O[C@H](c1ccc(O)cc1O)CC2=O [SOPHORAFLAVANONE G],5.2,1.1,Active,56

# More lines, now with the values ahead:
IC50 (Beta-secretase 1 [1]) [µM],Ki (Beta-secretase 1 [1]) [µM],Activity (Beta-secretase 1 [2]),Activity (Beta-secretase 1 [3]) [%],Structure (SMILES)
36.8,–,–,–,C=C(C)[C@H](CCC(C)(C)O)Cc1c(O)cc(O)c2c1O[C@H](c1ccccc1O)CC2=O [KUSHENOL T]
6.7,10.6,Active,51.1,C=C(C)[C@H](CC=C(C)C)Cc1c(O)cc(OC)c2c1O[C@H](c1ccc(O)cc1OC)CC2=O
8.4,3.9,Dose-dependent effect,40.7,C=C(C)[C@H](CC=C(C)C)Cc1c(O)cc(O)c2c1O[C@H](c1ccc(O)cc1OC)CC2=O [LEACHIANONE A]
2.6,3,Active,61.8,C=C(C)[C@H](CC=C(C)C)Cc1c(O)cc(O)c2c1O[C@H](c1ccccc1O)CC2=O [KUSHENOL A]
